Values of other authors, collected in US20050020589A1, “Sustained-release tablet composition comprising a dopamine receptor agonist” (Pfizer Inc., priority 2003, published 2005).

(R)-5,6-dihydro-5-(methylarnino)-4H-imidazo[4,5-ij]-quinolin-2(1H)-one (Z)-2-butenedioate (1:1) [maleate salt of sumanirole]
Solubility: highly soluble
